Blank lines part the entries; values can stand above or below the compound they belong to.
System: 817829-284-R-J1-PDC complex spheroids, viability
Assay: Anticancer human tumor 817829-284-R-J1-PDC patient-derived colon adenocarcinoma cell line growth inhibition [CLK]
Settings: for viability, T/C: stronger effect = lower value
In short: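 Patient-derived tumor cells grown as complex spheroids with HUVEC endothelial cells and mesenchymal stem cells, treated with drug combinations. Concentrations descend in half-log steps from near clinical Cmax, or from 10 microM if Cmax unknown.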

[1] = curve of first compound, second compound 0.0316 µM
[2] = curve of first compound, second compound 0.1 µM
[3] = curve of first compound, second compound 0.316 µM
[4] = curve of first compound, second compound 1 µM
[5] = curve of first compound, second compound 3.16 µM
[6] = curve of first compound, second compound 10 µM
[7] = second compound 0.0316 µM, first compound 0.0316 µM
[8] = second compound 0.0316 µM, first compound 0.1 µM
[9] = second compound 0.0316 µM, first compound 0.316 µM
[10] = second compound 0.0316 µM, first compound 1 µM
[11] = second compound 0.1 µM, first compound 0.0316 µM
[12] = second compound 0.1 µM, first compound 0.1 µM
[13] = second compound 0.1 µM, first compound 0.316 µM
[14] = second compound 0.1 µM, first compound 1 µM
[15] = second compound 0.316 µM, first compound 0.0316 µM
[16] = second compound 0.316 µM, first compound 0.1 µM
[17] = second compound 0.316 µM, first compound 0.316 µM
[18] = second compound 0.316 µM, first compound 1 µM
[19] = second compound 1 µM, first compound 0.0316 µM
[20] = second compound 1 µM, first compound 0.1 µM
[21] = second compound 1 µM, first compound 0.316 µM
[22] = second compound 1 µM, first compound 1 µM
[23] = second compound 3.16 µM, first compound 0.0316 µM
[24] = second compound 3.16 µM, first compound 0.1 µM
[25] = second compound 3.16 µM, first compound 0.316 µM
[26] = second compound 3.16 µM, first compound 1 µM
[27] = second compound 10 µM, first compound 0.0316 µM
[28] = second compound 10 µM, first compound 0.1 µM
[29] = second compound 10 µM, first compound 0.316 µM
[30] = second compound 10 µM, first compound 1 µM
[31] = second compound 0.0316 µM, first compound 3.16 µM
[32] = second compound 0.0316 µM, first compound 10 µM
[33] = second compound 0.1 µM, first compound 3.16 µM
[34] = second compound 0.1 µM, first compound 10 µM
[35] = second compound 0.316 µM, first compound 3.16 µM
[36] = second compound 0.316 µM, first compound 10 µM
[37] = second compound 1 µM, first compound 3.16 µM
[38] = second compound 1 µM, first compound 10 µM
[39] = second compound 3.16 µM, first compound 3.16 µM
[40] = second compound 3.16 µM, first compound 10 µM
[41] = second compound 10 µM, first compound 3.16 µM
[42] = second compound 10 µM, first compound 10 µM
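Further: spheroids exposed to the agents for seven days before readout.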

IC50 [1]: 33.8 nM | IC50 [2]: < 3.16 nM | IC50 [3]: < 3.16 nM | IC50 [4]: < 3.16 nM | IC50 [5]: < 3.16 nM | IC50 [6]: < 3.16 nM
Compound: COc1c(OCCCN2CCOCC2)ccc2c3n(c(=NC(=O)c4cnc(N)nc4)nc12)CCN3 + CNC(=O)c1ccc(Nc2nc(OC3CCCC3)c3c(-c4ccc5nc(C)oc5c4)c[nH]c3n2)c(OC)c1
viability, T/C (second compound 0.0316 µM, first compound 0.00316 µM): 39.8% | viability, T/C (second compound 0.0316 µM, first compound 0.01 µM): 41.3% | viability, T/C [7]: 74.9% | viability, T/C [8]: 19.1% | viability, T/C [9]: 4.03% | viability, T/C [10]: 1.87% | viability, T/C (second compound 0.1 µM, first compound 0.00316 µM): 24% | viability, T/C (second compound 0.1 µM, first compound 0.01 µM): 21% | viability, T/C [11]: 15.8% | viability, T/C [12]: 9.46% | viability, T/C [13]: 3.69% | viability, T/C [14]: 1.76% | viability, T/C (second compound 0.316 µM, first compound 0.00316 µM): 20.6% | viability, T/C (second compound 0.316 µM, first compound 0.01 µM): 22% | viability, T/C [15]: 18.4% | viability, T/C [16]: 9.72% | viability, T/C [17]: 3.22% | viability, T/C [18]: 2.08% | viability, T/C (second compound 1 µM, first compound 0.00316 µM): 31.5% | viability, T/C (second compound 1 µM, first compound 0.01 µM): 20.5% | viability, T/C [19]: 11.6% | viability, T/C [20]: 9.58% | viability, T/C [21]: 2.07% | viability, T/C [22]: 1.92% | viability, T/C (second compound 3.16 µM, first compound 0.00316 µM): 26.7% | viability, T/C (second compound 3.16 µM, first compound 0.01 µM): 24% | viability, T/C [23]: 11.9% | viability, T/C [24]: 5.77% | viability, T/C [25]: 2.1% | viability, T/C [26]: 1.82% | viability, T/C (second compound 10 µM, first compound 0.00316 µM): 19.7% | viability, T/C (second compound 10 µM, first compound 0.01 µM): 16% | viability, T/C [27]: 19.1% | viability, T/C [28]: 6.5% | viability, T/C [29]: 6.46% | viability, T/C [30]: 1.67%

IC50 (curve of compound): 1040 nM
Compound: COc1ccc([C@@H](O)c2cc(-c3ncnc4cc(N5CCOCC5)ccc34)c(F)cc2Cl)nn1
viability, T/C (compound 0.0316 µM): 117% | viability, T/C (compound 0.1 µM): 105% | viability, T/C (compound 0.316 µM): 86.4% | viability, T/C (compound 1 µM): 48.6% | viability, T/C (compound 3.16 µM): 31.6% | viability, T/C (compound 10 µM): 21.2%

Compound: CC(=O)O[C@H]1C(=O)[C@@]2(C)[C@H]([C@H](OC(=O)c3ccccc3)[C@]3(O)C[C@H](OC(=O)[C@H](O)[C@@H](NC(=O)c4ccccc4)c4ccccc4)C(C)=C1C3(C)C)[C@]1(OC(C)=O)CO[C@@H]1C[C@@H]2O + CN1CCN(c2cc(C(=O)Nc3cc4cc(-c5cnn(C)c5)ccc4cn3)ccn2)CC1
IC50 [1]: < 31.6 nM | IC50 [2]: < 31.6 nM | IC50 [3]: < 31.6 nM | IC50 [4]: < 31.6 nM | IC50 [5]: < 31.6 nM | IC50 [6]: < 31.6 nM | viability, T/C [7]: 5.38% | viability, T/C [8]: 5.12% | viability, T/C [9]: 4.55% | viability, T/C [10]: 4.77% | viability, T/C [31]: 5.22% | viability, T/C [32]: 5.27% | viability, T/C [11]: 5.23% | viability, T/C [12]: 4.54% | viability, T/C [13]: 4.59% | viability, T/C [14]: 4.02% | viability, T/C [33]: 4.74% | viability, T/C [34]: 5.63% | viability, T/C [15]: 2.41% | viability, T/C [16]: 2.26% | viability, T/C [17]: 2.43% | viability, T/C [18]: 2.04% | viability, T/C [35]: 2.2% | viability, T/C [36]: 2.45% | viability, T/C [19]: 0.09% | viability, T/C [20]: 0.1% | viability, T/C [21]: 0.09% | viability, T/C [22]: 0.07% | viability, T/C [37]: 0.09% | viability, T/C [38]: 0.11% | viability, T/C [23]: 0.11% | viability, T/C [24]: 0.14% | viability, T/C [25]: 0.13% | viability, T/C [26]: 0.16% | viability, T/C [39]: 0.1% | viability, T/C [40]: 0.14% | viability, T/C [27]: 0.07% | viability, T/C [28]: 0.1% | viability, T/C [29]: 0.11% | viability, T/C [30]: 0.09% | viability, T/C [41]: 0.11% | viability, T/C [42]: 0.12%

Compound: O=c1[nH]cc(F)c(=O)[nH]1 + CN1CCN(c2cc(C(=O)Nc3cc4cc(-c5cnn(C)c5)ccc4cn3)ccn2)CC1
IC50 [1]: 851 nM | IC50 [2]: < 31.6 nM | IC50 [3]: < 31.6 nM | IC50 [4]: < 31.6 nM | IC50 [5]: < 31.6 nM | IC50 [6]: < 31.6 nM | viability, T/C [7]: 72.7% | viability, T/C [8]: 66.3% | viability, T/C [9]: 57.1% | viability, T/C [10]: 52.4% | viability, T/C [31]: 33.8% | viability, T/C [32]: 26.3% | viability, T/C [11]: 18.2% | viability, T/C [12]: 17.6% | viability, T/C [13]: 22.3% | viability, T/C [14]: 20.8% | viability, T/C [33]: 18.9% | viability, T/C [34]: 15.9% | viability, T/C [15]: 2.25% | viability, T/C [16]: 2.52% | viability, T/C [17]: 1.94% | viability, T/C [18]: 2.49% | viability, T/C [35]: 2.36% | viability, T/C [36]: 2.06% | viability, T/C [19]: 0.14% | viability, T/C [20]: 0.12% | viability, T/C [21]: 0.18% | viability, T/C [22]: 0.07% | viability, T/C [37]: 0.07% | viability, T/C [38]: 0.05% | viability, T/C [23]: 0.14% | viability, T/C [24]: 0.11% | viability, T/C [25]: 0.11% | viability, T/C [26]: 0.1% | viability, T/C [39]: 0.15% | viability, T/C [40]: 0.14% | viability, T/C [27]: 0.07% | viability, T/C [28]: 0.08% | viability, T/C [29]: 0.1% | viability, T/C [30]: 0.11% | viability, T/C [41]: 0.13% | viability, T/C [42]: 0.08%

— PubChem BioAssay AID2060599 (Molecular Pharmacology Branch, DTP, NCI, 2025)
